Laboratory results taken from ChEMBL document CHEMBL1201862, “PubChem BioAssay data set” (2004).
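Protocol summary: plate cells (96-well), add compound at 5 concentrations, incubate 48 h, interpolate endpoints linearly. GI50: concentration for 50% inhibition of growth.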 The source made the active and inactive calls. Rule as the data show it: active = GI50 up to about 1.1 µM and inactive = higher.

Legend:
Test in all cases: NCI tumour cell line growth inhibition, 48 h
CCRF-CEM = test system: CCRF-CEM
SR = test system: SR
PC-3 = test system: PC-3
TK-10 = test system: TK-10
OVCAR-3 = test system: OVCAR-3
EKVX = test system: EKVX
Malme-3M = test system: Malme-3M
CAKI-1 = test system: CAKI-1
SW-620 = test system: SW-620
SK-MEL-5 = test system: SK-MEL-5
HCC 2998 = test system: HCC 2998
K562 = test system: K562
SNB-19 = test system: SNB-19
HCT-15 = test system: HCT-15
OVCAR-8 = test system: OVCAR-8
OVCAR-5 = test system: OVCAR-5
LOX IMVI = test system: LOX IMVI
HCT-116 = test system: HCT-116
ACHN = test system: ACHN
MDA-MB-231 = test system: MDA-MB-231
NCI-H226 = test system: NCI-H226
MOLT-4 = test system: MOLT-4
Hs-578T = test system: Hs-578T
MDA-N = test system: MDA-N
RXF 393 = test system: RXF 393
A498 = test system: A498
RPMI-8226 = test system: RPMI-8226
HL-60 = test system: HL-60
MDA-MB-435 = test system: MDA-MB-435
HT-29 = test system: HT-29
UACC-257 = test system: UACC-257
HOP-92 = test system: HOP-92
SK-MEL-2 = test system: SK-MEL-2
KM12 = test system: KM12
T47D = test system: T47D
SF-539 = test system: SF-539
A549 = test system: A549
NCI-H23 = test system: NCI-H23
SK-MEL-28 = test system: SK-MEL-28
HOP-62 = test system: HOP-62
DU-145 = test system: DU-145
SF-268 = test system: SF-268
SK-OV-3 = test system: SK-OV-3
MCF7 = test system: MCF7
M14 = test system: M14
UO-31 = test system: UO-31
786-0 = test system: 786-0
SF-295 = test system: SF-295
SNB-75 = test system: SNB-75
NCI-H460 = test system: NCI-H460
NCI/ADR-RES = test system: NCI/ADR-RES
NCI-H522 = test system: NCI-H522
COLO 205 = test system: COLO 205
UACC-62 = test system: UACC-62
SN12C = test system: SN12C
OVCAR-4 = test system: OVCAR-4
U-251 = test system: U-251

SMILES: C/C(=N\OCC(O)CNCCSCc1ccccc1)c1ccccc1Cl (configuration not stated)
- GI50 (CCRF-CEM): 28.6 µM (inactive)
- GI50 (SR): 31.7 µM (inactive)
- GI50 (PC-3): 18.5 µM (inactive)
- GI50 (TK-10): 17 µM (inactive)
- GI50 (OVCAR-3): 17.9 µM (inactive)
- GI50 (EKVX): 20 µM (inactive)
- GI50 (Malme-3M): 19.8 µM (inactive)
- GI50 (CAKI-1): 17.7 µM (inactive)
- GI50 (SW-620): 20 µM (inactive)
- GI50 (SK-MEL-5): 17.1 µM (inactive)
- GI50 (HCC 2998): 19.4 µM (inactive)
- GI50 (K562): 38.4 µM (inactive)
- GI50 (SNB-19): 18.5 µM (inactive)
- GI50 (HCT-15): 18.2 µM
- GI50 (OVCAR-8): 14.6 µM (inactive)
- GI50 (OVCAR-5): 19.3 µM (inactive)
- GI50 (LOX IMVI): 16.8 µM (inactive)
- GI50 (HCT-116): 21.6 µM (inactive)
- GI50 (ACHN): 18.1 µM (inactive)
- GI50 (MDA-MB-231): 18 µM (inactive)
- GI50 (NCI-H226): 17.6 µM (inactive)
- GI50 (MOLT-4): 47.5 µM (inactive)
- GI50 (Hs-578T): 27.7 µM (inactive)
- GI50 (MDA-N): 19.6 µM (inactive)
- GI50 (RXF 393): 18.7 µM (inactive)
- GI50 (A498): 15.6 µM (inactive)
- GI50 (RPMI-8226): 21.8 µM (inactive)
- GI50 (HL-60): 24 µM (inactive)
- GI50 (MDA-MB-435): 17.4 µM (inactive)
- GI50 (HT-29): 20.6 µM (inactive)
- GI50 (UACC-257): 18.5 µM (inactive)
- GI50 (HOP-92): 13.2 µM (inactive)
- GI50 (SK-MEL-2): 40.4 µM (inactive)
- GI50 (KM12): 18.6 µM (inactive)
- GI50 (T47D): 22.6 µM (inactive)
- GI50 (SF-539): 19.5 µM (inactive)
- GI50 (A549): 19.6 µM (inactive)
- GI50 (NCI-H23): 37.5 µM (inactive)
- GI50 (SK-MEL-28): 20.7 µM (inactive)
- GI50 (HOP-62): 19.4 µM (inactive)
- GI50 (DU-145): 23.3 µM (inactive)
- GI50 (SF-268): 17.3 µM (inactive)
- GI50 (SK-OV-3): 19.2 µM (inactive)
- GI50 (MCF7): 19.8 µM (inactive)
- GI50 (M14): 21.8 µM (inactive)
- GI50 (UO-31): 15.7 µM (inactive)
- GI50 (786-0): 21.4 µM (inactive)
- GI50 (SF-295): 18.6 µM (inactive)
- GI50 (SNB-75): 21.4 µM (inactive)
- GI50 (NCI-H460): 21.6 µM (inactive)
- GI50 (NCI/ADR-RES): 19.1 µM (inactive)
- GI50 (NCI-H522): 28.7 µM (inactive)
- GI50 (COLO 205): 19.2 µM (inactive)
- GI50 (UACC-62): 18.6 µM (inactive)
- GI50 (SN12C): 18.6 µM (inactive)

SMILES: N=C(N)SCCC(=O)CCSC(=N)N
- GI50 (CCRF-CEM): > 100 µM (inactive)
- GI50 (SR): > 100 µM (inactive)
- GI50 (PC-3): > 100 µM (inactive)
- GI50 (TK-10): > 100 µM (inactive)
- GI50 (OVCAR-3): > 100 µM (inactive)
- GI50 (SW-620): > 100 µM (inactive)
- GI50 (SK-MEL-5): > 100 µM (inactive)
- GI50 (HCC 2998): > 100 µM (inactive)
- GI50 (K562): 99.5 µM (inactive)
- GI50 (SNB-19): > 100 µM (inactive)
- GI50 (HCT-15): > 100 µM
- GI50 (OVCAR-8): > 100 µM (inactive)
- GI50 (LOX IMVI): > 100 µM (inactive)
- GI50 (HCT-116): > 100 µM (inactive)
- GI50 (ACHN): > 100 µM (inactive)
- GI50 (MDA-MB-231): > 100 µM (inactive)
- GI50 (NCI-H226): > 100 µM (inactive)
- GI50 (MOLT-4): 99.5 µM (inactive)
- GI50 (Hs-578T): > 100 µM (inactive)
- GI50 (MDA-N): > 100 µM (inactive)
- GI50 (RXF 393): > 100 µM (inactive)
- GI50 (A498): 5.5 µM (inactive)
- GI50 (HL-60): > 100 µM (inactive)
- GI50 (MDA-MB-435): > 100 µM (inactive)
- GI50 (OVCAR-4): > 100 µM (inactive)
- GI50 (HT-29): > 100 µM (inactive)
- GI50 (UACC-257): 36 µM (inactive)
- GI50 (HOP-92): > 100 µM (inactive)
- GI50 (KM12): 70.3 µM (inactive)
- GI50 (T47D): > 100 µM (inactive)
- GI50 (U-251): > 100 µM (inactive)
- GI50 (A549): > 100 µM (inactive)
- GI50 (NCI-H23): > 100 µM (inactive)
- GI50 (SK-MEL-28): > 100 µM (inactive)
- GI50 (DU-145): > 100 µM (inactive)
- GI50 (SF-268): > 100 µM (inactive)
- GI50 (SK-OV-3): > 100 µM (inactive)
- GI50 (MCF7): > 100 µM (inactive)
- GI50 (M14): > 100 µM (inactive)
- GI50 (UO-31): > 100 µM (inactive)
- GI50 (SF-295): > 100 µM (inactive)
- GI50 (SNB-75): > 100 µM (inactive)
- GI50 (NCI-H460): > 100 µM (inactive)
- GI50 (NCI/ADR-RES): 91.2 µM (inactive)
- GI50 (NCI-H522): > 100 µM (inactive)
- GI50 (COLO 205): > 100 µM (inactive)
- GI50 (SN12C): > 100 µM (inactive)
